Laboratory results reported in publication PMC6946680, “Modulation of brain cation-Cl^− cotransport via the SPAK kinase inhibitor ZT-1a” (Nature Communications, 2020).
“And” between values parts separate entries of the source, which are not always exact repeats. Identical values can stand only once. Like-named read-outs stand apart in the source and are kept apart here.

Assays:
Assay type in all cases: cell-based, human
KCC3 pThr1048 [1] = assay: Immunoblot of KCC site 2 phosphorylation (KCC3 Thr1048) in HEK-293 cells transfected with FLAG-KCC3; conditions: read-out: KCC3 pThr1048 (μM), 50% inhibition, HEK-293, n = 3
SPAK pSer373 [2] = assay: Immunoblot of SPAK/OSR1 p-Ser373/Ser325 in HEK-293 cells; conditions: read-out: SPAK pSer373 (μM), 50% inhibition, HEK-293, n = 3
KCC3 pThr991 = assay: Immunoblot of KCC site 1 phosphorylation (KCC3 Thr991) in HEK-293 cells transfected with FLAG-KCC3; conditions: for IC50: read-out: KCC3 pThr991 (μM), 50% inhibition, HEK-293, n = 3
NKCC1 pThr203/207/212 [3] = assay: Immunoblot of NKCC1 p-Thr203/Thr207/Thr212 in HEK-293 cells; conditions: read-out: NKCC1 pThr203 (μM), 50% inhibition, HEK-293, n = 3
KCC3 pThr1048 [4] = assay: Immunoblot of KCC site 2 phosphorylation (KCC3 Thr1048) in HEK-293 cells transfected with FLAG-KCC3
NKCC1 pThr203/207/212 [5] = assay: Immunoblot of NKCC1 p-Thr203/Thr207/Thr212 in HEK-293 cells
Method: (§1) Band intensities were quantitated with ImageJ software. ***p < 0.001; **p < 0.01; *p < 0.05; ns, nonsignificant [by one-way ANOVA with post hoc testing (n = 6, error bars represent the mean ± SEM)].
(§2) Thirty-six hours post transfection, cells were stimulated with either control isotonic or hypotonic medium for a period of 30 min. […] Protein concentrations were determined using the Bradford method. Cells were treated with the indicated concentrations of the SPAK/OSR1 inhibitors.

SPAK pSer373 [6] = assay: Immunoblot of SPAK/OSR1 p-Ser373/Ser325 in HEK-293 cells
Method: as §1, §2

[7] = Hypotonic low Cl, compound concentration 1 (unit not given)
[8] = Hypotonic low Cl, compound concentration 3 (unit not given)
[9] = Hypotonic low Cl, compound concentration 10 (unit not given)
[10] = Isotonic control, compound concentration 1 (unit not given)
[11] = Isotonic control, compound concentration 3 (unit not given)
[12] = Isotonic control, compound concentration 10 (unit not given)

Compound `Cc1cc(C(C#N)c2ccc(Cl)cc2)c(Cl)cc1NC(=O)c1cccc(O)c1O` (centres unmarked) [Compound 1i] has an IC50 (KCC3 pThr1048 [1]; Iso (isotonic)) greater than 10 µM, an IC50 (KCC3 pThr1048 [1]; hypo (hypotonic)) greater than 10 µM and an IC50 (SPAK pSer373 [2]; Iso (isotonic)) greater than 10 µM. For the same compound, the IC50 (SPAK pSer373 [2]; hypo (hypotonic)) was greater than 10 µM, the IC50 (KCC3 pThr991; Iso (isotonic)) was greater than 10 µM and the IC50 (KCC3 pThr991; hypo (hypotonic)) was greater than 10 µM. The IC50 (NKCC1 pThr203/207/212 [3]; Iso (isotonic)) was greater than 10 µM and the IC50 (NKCC1 pThr203/207/212 [3]; hypo (hypotonic)) was greater than 10 µM.

For `Cc1cc(C(C#N)c2ccc(Cl)cc2)c(Cl)cc1NC(=O)c1cccc(F)c1O` (centres unmarked) [ZT-1h], the “Site-2 phospho / KCC” value (KCC3 pThr1048 [4]; [7]) was 0.281 and 0.258 and 0.279 and 0.266, the “Site-2 phospho / KCC” value (KCC3 pThr1048 [4]; [8]) was 0.143 and 0.176 and 0.159 and 0.132 and the “Site-2 phospho / KCC” value (KCC3 pThr1048 [4]; [9]) was 0.021 and 0.042 and 0.035 and 0.025. For the same compound, the “Site-2 phospho / KCC” value (KCC3 pThr1048 [4]; [10]) was 0.271 and 0.243 and 0.219 and 0.263, the “Site-2 phospho / KCC” value (KCC3 pThr1048 [4]; [11]) was 0.186 and 0.176 and 0.131 and 0.159 and the “Site-2 phospho / KCC” value (KCC3 pThr1048 [4]; [12]) was 0.052 and 0.041 and 0.03 and 0.048. For the same compound, the “Site-1 phospho / KCC” value (KCC3 pThr991; [7]) was 0.488 and 0.427 and 0.359 and 0.502, the “Site-1 phospho / KCC” value (KCC3 pThr991; [8]) was 0.412 and 0.376 and 0.392 and 0.431 and the “Site-1 phospho / KCC” value (KCC3 pThr991; [9]) was 0.165 and 0.187 and 0.122 and 0.203. For the same compound, the “Site-1 phospho / KCC” value (KCC3 pThr991; [10]) was 0.455 and 0.431 and 0.5108 and 0.482, the “Site-1 phospho / KCC” value (KCC3 pThr991; [11]) was 0.419 and 0.386 and 0.354 and 0.437 and the “Site-1 phospho / KCC” value (KCC3 pThr991; [12]) was 0.215 and 0.201 and 0.251 and 0.276. The “pThrNKCC1 / NKCC1” value (NKCC1 pThr203/207/212 [5]; [7]) was 0.317 and 0.294 and 0.283 and 0.306, the “pThrNKCC1 / NKCC1” value (NKCC1 pThr203/207/212 [5]; [8]) was 0.131 and 0.156 and 0.1342 and 0.125 and the “pThrNKCC1 / NKCC1” value (NKCC1 pThr203/207/212 [5]; [10]) was 0.112 and 0.132 and 0.122 and 0.109. For the same compound, the “pThrNKCC1 / NKCC1” value (NKCC1 pThr203/207/212 [5]; [11]) was 0.022 and 0.043 and 0.035 and 0.028, the “pThrNKCC1 / NKCC1” value (NKCC1 pThr203/207/212 [5]; [12]) was 0.008 and 0.006 and 0.004 and 0.005 and the “pSer373 / SPAK” value (SPAK pSer373 [6]; [7]) was 0.297 and 0.248 and 0.275 and 0.253. For the same compound, the “pSer373 / SPAK” value (SPAK pSer373 [6]; [8]) was 0.179 and 0.135 and 0.168 and 0.158, the “pSer373 / SPAK” value (SPAK pSer373 [6]; [9]) was 0.066 and 0.034 and 0.051 and 0.049 and the “pSer373 / SPAK” value (SPAK pSer373 [6]; [10]) was 0.112 and 0.124 and 0.132 and 0.106. The “pSer373 / SPAK” value (SPAK pSer373 [6]; [11]) was 0.08 and 0.07 and 0.064 and 0.084 and the “pSer373 / SPAK” value (SPAK pSer373 [6]; [12]) was 0.034 and 0.025 and 0.043 and 0.026.

In the case of `Cc1cc(C(C#N)c2ccc(Cl)cc2)c(Cl)cc1NC(=O)c1ccccc1[N+](=O)[O-]` (centres unmarked) [Compound 1e], the IC50 (KCC3 pThr1048 [1]; Iso (isotonic)) is reported as greater than 10 µM, the IC50 (KCC3 pThr1048 [1]; hypo (hypotonic)) is reported as greater than 10 µM and the IC50 (SPAK pSer373 [2]; Iso (isotonic)) is reported as greater than 10 µM. For the same compound, the IC50 (SPAK pSer373 [2]; hypo (hypotonic)) was greater than 10 µM, the IC50 (KCC3 pThr991; Iso (isotonic)) was greater than 10 µM and the IC50 (KCC3 pThr991; hypo (hypotonic)) was greater than 10 µM. For the same compound, the IC50 (NKCC1 pThr203/207/212 [3]; Iso (isotonic)) was greater than 10 µM and the IC50 (NKCC1 pThr203/207/212 [3]; hypo (hypotonic)) was greater than 10 µM.

`COc1ccc(Cl)cc1C(=O)Nc1cc(Cl)c(C(C#N)c2ccc(Cl)cc2)cc1C` (centres unmarked) [Compound 1j] was tested, and the IC50 (KCC3 pThr1048 [1]; Iso (isotonic)) was greater than 10 µM, the IC50 (KCC3 pThr1048 [1]; hypo (hypotonic)) was greater than 10 µM and the IC50 (SPAK pSer373 [2]; Iso (isotonic)) was greater than 10 µM. For the same compound, the IC50 (SPAK pSer373 [2]; hypo (hypotonic)) was greater than 10 µM, the IC50 (KCC3 pThr991; Iso (isotonic)) was greater than 10 µM and the IC50 (KCC3 pThr991; hypo (hypotonic)) was greater than 10 µM. It also gave an IC50 (NKCC1 pThr203/207/212 [3]; Iso (isotonic)) greater than 10 µM and an IC50 (NKCC1 pThr203/207/212 [3]; hypo (hypotonic)) greater than 10 µM.
